Experimental data from the NIST ThermoML archive (doi:10.1021/je060271a).

Conditions: 323.15 K, Liquid, Vibrating tube method

CCCCC(=O)OCC(COC(=O)CCCC)(COC(=O)CCCC)COC(=O)CCCC [pentaerythritol tetrapentanoate]
Conditions	mass density [kg/m3]
20383 kPa	1008.5
20411 kPa	1008.4
20440 kPa	1008.5
20474 kPa	1008.4
20502 kPa	1008.4
20532 kPa	1008.5
20561 kPa	1008.5
20596 kPa	1008.5
20625 kPa	1008.6
20659 kPa	1008.6
20689 kPa	1008.5
20718 kPa	1008.6
20747 kPa	1008.6
20783 kPa	1008.8
20813 kPa	1008.6
20848 kPa	1008.7
20877 kPa	1008.7
20908 kPa	1008.7
20944 kPa	1008.8
20974 kPa	1008.8
21004 kPa	1008.8
21035 kPa	1008.8
21072 kPa	1008.7
21102 kPa	1008.8
21133 kPa	1008.9
21170 kPa	1008.8
21202 kPa	1009
21233 kPa	1008.9
21271 kPa	1008.9
21302 kPa	1009
21334 kPa	1009.1
21366 kPa	1009
21404 kPa	1009
21436 kPa	1009.1
21467 kPa	1009.1
21506 kPa	1009.1
21538 kPa	1009
21570 kPa	1009.1
21602 kPa	1009.2
21640 kPa	1009.2
21673 kPa	1009.2
21712 kPa	1009.2
21744 kPa	1009.1
21778 kPa	1009.3
21817 kPa	1009.3
21851 kPa	1009.3
21883 kPa	1009.4
21916 kPa	1009.3
21956 kPa	1009.5
21989 kPa	1009.3
22029 kPa	1009.4
22063 kPa	1009.6
22097 kPa	1009.4
22137 kPa	1009.6
22171 kPa	1009.6
22206 kPa	1009.5
22241 kPa	1009.5
22282 kPa	1009.6
22316 kPa	1009.7
22351 kPa	1009.7
22393 kPa	1009.6
22429 kPa	1009.6
22457 kPa	1009.7
22500 kPa	1009.8
22542 kPa	1009.8
22578 kPa	1009.8
22621 kPa	1009.9
22658 kPa	1009.7
22697 kPa	1009.8
22736 kPa	1009.9
22782 kPa	1009.8
22818 kPa	1009.9
22851 kPa	1010
22882 kPa	1010
22921 kPa	1010.1
22951 kPa	1009.9
22978 kPa	1010.1
23006 kPa	1010
23030 kPa	1010
23059 kPa	1010.1
23083 kPa	1010.2
23108 kPa	1010.1
23132 kPa	1010.2
23156 kPa	1010.1
23180 kPa	1010.1
23209 kPa	1010.1
23233 kPa	1010.2
23262 kPa	1010.2
23287 kPa	1010.1
23311 kPa	1010.3
23336 kPa	1010.3
23364 kPa	1010.3
23389 kPa	1010.3
23414 kPa	1010.4
23444 kPa	1010.3
23468 kPa	1010.3
23497 kPa	1010.4
23523 kPa	1010.3
23547 kPa	1010.4
23572 kPa	1010.4
23603 kPa	1010.4
23627 kPa	1010.5
23657 kPa	1010.5
23683 kPa	1010.5
23708 kPa	1010.5
23738 kPa	1010.6
23763 kPa	1010.6
23790 kPa	1010.6
23820 kPa	1010.5
23846 kPa	1010.7
23871 kPa	1010.6
23902 kPa	1010.5
23928 kPa	1010.7
23954 kPa	1010.7
23985 kPa	1010.6
24011 kPa	1010.6
24037 kPa	1010.7
24063 kPa	1010.8
24094 kPa	1010.9
24121 kPa	1010.7
24148 kPa	1010.8
24180 kPa	1010.8
24206 kPa	1010.7
24237 kPa	1010.8
24264 kPa	1010.9
24291 kPa	1010.8
24318 kPa	1010.9
24350 kPa	1010.8
24378 kPa	1010.9
24405 kPa	1011
24437 kPa	1010.9
24464 kPa	1010.9
24497 kPa	1011.1
24525 kPa	1011
24552 kPa	1011
24580 kPa	1011.1
24612 kPa	1011
24640 kPa	1011
24667 kPa	1011.2
24701 kPa	1011.1
24728 kPa	1011.1
24761 kPa	1011.1
24789 kPa	1011.2
24817 kPa	1011.2
24845 kPa	1011.1
24879 kPa	1011.3
24908 kPa	1011.2
24936 kPa	1011.2
24970 kPa	1011.3
24999 kPa	1011.2
25027 kPa	1011.3
25056 kPa	1011.3
25091 kPa	1011.3
25119 kPa	1011.3
25148 kPa	1011.4
25182 kPa	1011.4
25212 kPa	1011.5
25247 kPa	1011.4
25278 kPa	1011.4
25307 kPa	1011.4
25336 kPa	1011.4
